Entries after “also recorded” stand apart in the source; their conditions may differ.
Assays:
[1] = test system: di-22:6-BMP; details: monkeys; Fuji 2015, Baptista 2020; cited from earlier work
[2] = Phase 1 first-in-human study, safety and tolerability, multiple-dose cohorts (Parts B, D, E); type: in vivo
Protocol: This double-blind, placebo-controlled Phase 1 study comprised single-ascending dose (SAD) and 10-day, 14-day, and 28-day multiple-ascending dose (MAD) parts in healthy volunteers. BID=twice daily; PBO=placebo; QD=once daily.
In a separate analysis of ≥1 TEAE in ≥2 subjects per treatment arm included the following additional TEAEs not listed above: ear pain (n=2; 105 mg QD 10-day cohort); nasopharyngitis (n=2; 225 mg QD 28-day cohort); asymptomatic COVID-19 (n=2; 400 mg BID 14-day cohort); somnolence (n=2; 250 mg BID 14-day cohort). 2 subjects also experienced presyncope associated with lumbar puncture (one each for 150 and 225 mg QD 28-day cohort).
In the Phase 1 study in healthy volunteers, the demographics of participants was as follows: • 184 HVs (145 active, 39 placebo) were treated with single or multiple once daily (QD) or twice daily (BID) doses up to 28 days in the following study Parts: • Part A (SAD; young HVs; n=48): 100% male and median age of 25 (range, 18-50) years; • Part B (10-day MAD; young HVs; n=80): 99% male and median age of 26.5 (range, 18-50) years; • Part C (SAD: elderly HVs; n=8): 50% male and median age of 69 (range, 67-74) years; • Part D (28-day MAD; young HVs; n=17): 100% male and median age of 29 (range, 18-39) years; and • E (14-day MAD: young HVs: n=31): 100% male and median age 30 (range 18-50) years.
This was a Phase 1, randomized, placebo-controlled, double-blind FIH study designed to determine the safety, tolerability. PK, and pharmacodynamics of compound I in healthy subjects.
Part B of this study was composed of sequential multiple ascending dose (MAD) cohorts. Healthy subjects were enrolled in 8 cohorts (Cohorts B1-B8; n=10/cohort) and were administered compound I 15, 30, 45, 70, 105, 150, 225, or 300 mg or placebo (4:1 ratio) QD for 10 days.
Part D was composed of a multiple-dose cohort (Cohort D1) of healthy subjects administered either compound I 225 mg (n=13) or placebo (n=4) QD for 28 days.
Part E is composed of sequential MAD cohorts. Healthy subjects in Cohort E1 were administered compound I 150 mg or placebo BID (4:1 ratio) for 14 days (n=9) and subjects in Cohort E2 were administered compound I 250 mg or placebo BID (4:1 ratio) for 14 days (n=11). Subjects in the ongoing Cohort E3 are being administered […] or placebo BID (4:1 ratio) for 14 days.

[3] = Phase 1b study in subjects with Parkinson's disease, safety and tolerability; type: in vivo, human
Text: This study was a double-blind, placebo-controlled, parallel-design Phase 1b study with 28-day dosing, administered once daily in Parkinson's disease patients.
GERD, gastroesophageal reflux disease: TEAE, treatment-emergent adverse event. ^aProcedural related includes (in order of frequency): procedural pain, post procedural contusion, post procedural hematoma, and procedural headache; ^bHypotension and orthostatic hypotension occurred in the same two patients.
A total of 36 patients with PD (26 active, 10 placebo) were treated with up to 300 mg QD for 28 days (FIG. 8).
This was a Phase 1b, randomized, placebo-controlled, double-blind study designed to determine the safety, tolerability, PK, and pharmacodynamics of compound I in subjects with PD. The conduct of this study has been completed and the clinical study report is in progress. In Part 1, subjects were administered compound I 80 mg or placebo QD (1:1 ratio) for 28 days (n=8). In Part 2, subjects were administered compound I 80 or 130 mg or placebo QD (1:2:1 ratio) for 28 days (n=17). In Part 3, subjects were administered compound I 300 mg or placebo QD (4:1 ratio) for 28 days (n=11).

[4] = Clinical safety across the Phase 1 and Phase 1b studies (conclusions); type: in vivo, human
Text: Based on the 2-fold increase in kinase activity associated with LRRK2 G2019S point mutations, reduction of whole-blood pS935 LRRK2 of ≥50% at trough in ≥50% of the study subjects represents a minimal pharmacodynamic target.
Safety data from Phase 1 first in human study in healthy subjects and Phase 1b study in subjects with PD are summarized below.
The most common TEAE in compound I-treated participants was headache.

[5] = target: T1, pS935 LRRK2 (Homo sapiens, UniProt Q5S007); test: pS935 LRRK2 in whole blood, MSD immunoassay (target engagement, Phase 1/1b); type: in vivo; details: for reduction in pS935 compared with baseline: Phase 1 healthy volunteers
T1 construct: from tissue; host or cells: human whole blood from clinical study subjects (healthy subjects, and subjects with PD in Phase 1b)
Protocol: Frozen human whole blood samples were thawed and directly lysed in 96-well plates (100 μl whole blood sample with 100 μl lysis buffer). Samples were spun down (2,500×g for 20 minutes at 4° C.) before MSD assay.
(§1) Capture antibodies were biotinylated using EZ-Link™ NHS-LC-LC-Biotin (Thermo Fisher, #21343), and detection antibodies were conjugated using Sulfo-TAG NHS-Ester (MSD, R31AA-1). 96-well (or 384-well) MSD GOLD Small Spot Streptavidin plates (MSD L45SSA-1) were coated with 25 μl (or 15 μl for 384 well plates) of capture antibody diluted in Diluent 100 (MSD, R50AA-2) for 1 hour at room temperature with 700 rpm shaking (1000 rpm for 384-well). After TBST wash (3×), 25 μl samples were added each well (10 μl for 384-well) and incubated at 4° C. overnight with agitation at 700 rpm. After TBST wash (3×), 25 μl of detection antibodies (15 μl for 384-well) were added each well diluted in TBST containing 25% MSD blocker A (MSD R93AA-1), together with rabbit (Rockland Antibodies D610-1000) and mouse gamma globin fraction (D609-0100). After 1 hour incubation at room temperature at 700 rpm, followed by TBST washes (3×), 150 μl MSD read buffer (MSD R92TC. 1:1 diluted with water) is added (35 μl for 384-well), and plates are read on the MSD Sector S 600.

[6] = test system: pT73 Rab10; test: pRab10 in PBMCs, MSD immunoassay (pathway engagement, Phase 1/1b); type: in vivo, human
Protocol: Blood was collected into CPT-sodium heparin tubes (BD BDAM362780) and PBMCs were then isolated following the manufacturer's protocol. The PBMCs were pelleted by centrifugation at maximum speed and then resuspended in PBMC lysis buffer (1× cell lysis buffer [CST catalog #9803] with PhosSTOP phosphatase inhibitor [Roche 04906837001], complete protease inhibitor [Roche 04693159001], and Benzonase [Sigma E8263]). The lysates were held on ice for 20 minutes, followed by centrifugation at maximum speed at 4° C. for 20 minutes. Supernatants were aliquoted and stored at −80° C. for later immunoassay analysis.
as §1

[7] = test system: BMP(22:6/22:6); test: Urine BMP(22:6/22:6) (lysosomal engagement, Phase 1/1b); type: in vivo, human; details: HVs and patients with PD
Text: BMP concentrations were normalized to creatinine concentrations (ng/mg).
Lysosomal lipid BMP 22:6/22:6 (referred to throughout the document as “BMP”) measured in urine represents a mechanistic marker of correction of the lysosomal pathways downstream of LRRK2. BMP is a lysosomal phospholipid found exclusively on the intraluminal vesicles of late endosomes and lysosomes (Bissig and Gruenberg, Cold Spring Harb Perspect Biol. 2013; 5(10):a016816). Individuals with genetic or drug-induced lysosomal function disorders, including those with G2019S LRRK2 mutations, have increased levels of urine BMP (Lecommandeur et al., J Lipid Res. 2017:58(7): 1306-14; Alcalay et al., Mov Disord. 2013; 28(14):1966-71).

[8] = CSF penetration, CSF/unbound plasma ratio (Phase 1/1b); type: in vivo, human
[9] = Phase 1 first-in-human study, safety and tolerability, multiple-dose cohorts (Parts B, D, E); type: in vivo; details: Part E, healthy subjects; procedural headache (250 mg BID), headache and malaise (40 mg BID)
[10] = Part B, healthy subjects, 15-300 mg QD for 10 days
[11] = Part D, healthy subjects, 225 mg QD for 28 days
[12] = Part E, healthy subjects, BID for 14 days
[13] = subjects with PD, 80, 130 or 300 mg QD for 28 days
[14] = subjects with PD, 80-300 mg QD for 28 days

T1 sequence (Q5S007 whole entry): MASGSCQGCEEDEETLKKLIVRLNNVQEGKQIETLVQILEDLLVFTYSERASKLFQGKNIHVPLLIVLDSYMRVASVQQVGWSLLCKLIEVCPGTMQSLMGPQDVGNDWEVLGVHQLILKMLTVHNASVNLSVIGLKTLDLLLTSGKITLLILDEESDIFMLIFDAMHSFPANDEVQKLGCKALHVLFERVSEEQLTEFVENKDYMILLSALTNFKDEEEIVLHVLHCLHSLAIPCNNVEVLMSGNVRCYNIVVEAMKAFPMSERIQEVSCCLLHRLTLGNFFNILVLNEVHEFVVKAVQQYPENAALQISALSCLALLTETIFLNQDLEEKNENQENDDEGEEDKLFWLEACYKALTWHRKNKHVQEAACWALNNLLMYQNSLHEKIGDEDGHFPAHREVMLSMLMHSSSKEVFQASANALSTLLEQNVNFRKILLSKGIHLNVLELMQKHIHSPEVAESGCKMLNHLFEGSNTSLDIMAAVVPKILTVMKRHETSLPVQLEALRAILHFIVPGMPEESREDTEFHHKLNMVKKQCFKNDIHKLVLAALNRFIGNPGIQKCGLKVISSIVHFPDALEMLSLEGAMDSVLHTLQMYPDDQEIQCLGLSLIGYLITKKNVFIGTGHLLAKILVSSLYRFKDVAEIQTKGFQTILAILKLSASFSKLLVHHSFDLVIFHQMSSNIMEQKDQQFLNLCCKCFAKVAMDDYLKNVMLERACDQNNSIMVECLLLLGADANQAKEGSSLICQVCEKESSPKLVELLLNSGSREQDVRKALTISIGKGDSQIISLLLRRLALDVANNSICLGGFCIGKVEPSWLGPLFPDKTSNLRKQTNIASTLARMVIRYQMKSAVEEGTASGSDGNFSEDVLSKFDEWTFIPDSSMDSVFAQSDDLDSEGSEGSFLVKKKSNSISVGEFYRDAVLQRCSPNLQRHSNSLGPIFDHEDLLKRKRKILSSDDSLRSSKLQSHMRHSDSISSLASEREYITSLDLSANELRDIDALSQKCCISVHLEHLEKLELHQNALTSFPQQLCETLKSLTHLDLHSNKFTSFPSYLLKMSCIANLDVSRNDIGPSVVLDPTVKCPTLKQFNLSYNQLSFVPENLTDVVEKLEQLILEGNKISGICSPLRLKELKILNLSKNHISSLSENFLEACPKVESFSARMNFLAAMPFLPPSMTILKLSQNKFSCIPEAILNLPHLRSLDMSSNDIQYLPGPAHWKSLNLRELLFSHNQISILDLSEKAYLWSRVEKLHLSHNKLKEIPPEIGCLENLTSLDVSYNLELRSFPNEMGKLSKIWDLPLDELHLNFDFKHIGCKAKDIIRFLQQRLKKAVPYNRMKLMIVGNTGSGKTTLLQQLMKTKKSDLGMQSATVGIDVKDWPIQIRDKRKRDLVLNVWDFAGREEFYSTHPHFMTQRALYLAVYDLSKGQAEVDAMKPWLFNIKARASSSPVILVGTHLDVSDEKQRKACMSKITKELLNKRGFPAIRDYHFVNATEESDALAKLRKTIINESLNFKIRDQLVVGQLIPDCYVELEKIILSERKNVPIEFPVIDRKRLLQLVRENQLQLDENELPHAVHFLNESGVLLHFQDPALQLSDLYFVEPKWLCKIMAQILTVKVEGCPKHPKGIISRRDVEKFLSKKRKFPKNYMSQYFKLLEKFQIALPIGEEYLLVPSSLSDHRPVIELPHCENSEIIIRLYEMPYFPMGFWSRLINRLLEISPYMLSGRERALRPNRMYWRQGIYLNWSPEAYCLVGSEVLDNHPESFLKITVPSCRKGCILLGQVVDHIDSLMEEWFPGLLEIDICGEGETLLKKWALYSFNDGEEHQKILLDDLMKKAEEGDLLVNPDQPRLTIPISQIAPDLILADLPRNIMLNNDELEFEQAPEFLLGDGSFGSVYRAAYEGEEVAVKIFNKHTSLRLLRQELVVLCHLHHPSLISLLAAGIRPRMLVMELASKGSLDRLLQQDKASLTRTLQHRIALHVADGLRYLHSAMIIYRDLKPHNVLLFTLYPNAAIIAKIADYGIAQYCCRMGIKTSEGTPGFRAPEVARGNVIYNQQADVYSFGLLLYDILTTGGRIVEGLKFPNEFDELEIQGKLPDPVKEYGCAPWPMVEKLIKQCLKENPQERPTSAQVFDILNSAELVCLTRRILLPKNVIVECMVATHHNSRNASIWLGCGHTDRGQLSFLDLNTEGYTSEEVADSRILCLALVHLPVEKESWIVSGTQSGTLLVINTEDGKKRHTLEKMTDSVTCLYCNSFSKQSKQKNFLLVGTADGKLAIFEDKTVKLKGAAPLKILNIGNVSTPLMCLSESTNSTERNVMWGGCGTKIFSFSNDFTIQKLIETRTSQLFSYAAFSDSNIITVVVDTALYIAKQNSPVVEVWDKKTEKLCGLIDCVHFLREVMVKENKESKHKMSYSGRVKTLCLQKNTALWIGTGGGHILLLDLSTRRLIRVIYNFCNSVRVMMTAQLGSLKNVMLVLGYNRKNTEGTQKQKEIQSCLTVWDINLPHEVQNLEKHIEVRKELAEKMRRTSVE

For `CNc1nc(Nc2cn(C(C)(C)C#N)nc2C)ncc1C(F)(F)F` [GNE-0877], the “urine di-22:6-BMP” value [1] is listed as “decreased”.

In the case of `CCNc1nc(Nc2cc(F)c(C(=O)N3CCOCC3)cc2OC)ncc1C(F)(F)F` [GNE-7915], the “urine di-22:6-BMP” value [1] is given as “decreased”.

With `CCNc1nc(Nc2cc(C(C)(C)n3nccn3)nn2C2CC2)ncc1C(F)(F)F` [compound I, N2-(3-(2-(2H-1,2,3-triazol-2-yl)propan-2-yl)-1-cyclopropyl-1H-pyrazol-5-yl)-N4-ethyl-5-(trifluoromethyl)pyrimidine-2,4-diamine] the “presyncope associated with lumbar puncture” value ([2]; FIG. 9 legend, one each for 150 and 225 mg QD 28-day cohort) was 2 subjects, the “changes in safety laboratory, vital signs, ECG, neurological examination, PFT or C-SSRS results” value [2, 10] was “No clinically significant changes” and the “deaths, other SAEs, AESIs or TEAEs leading to study drug discontinuation” value [2, 10] was “No deaths, other SAEs (serious adverse events), AESIs (adverse events of special interests), or treatment-emergent adverse events (TEAEs) leading to study drug discontinuation were reported”. For the same compound, the “subjects who experienced a severe TEAE” value [2, 10] was “no subjects”, the “subjects who experienced ≥1 TEAE” value [2, 10] was 56 (86.2%) subjects (%) and the “subjects who experienced ≥1 mild TEAE” value [2, 10] was 55 (84.6%) subjects (%). The “subjects who experienced ≥1 moderate TEAE” value [2, 10] was 9 (13.8%) subjects (%), the tolerability ([2]; Part B, healthy subjects, multiple doses up to 300 mg QD for 10 days) was “generally well tolerated” and the “changes in safety laboratory, vital sign, ECG, neurological examination, PFT or C-SSRS results” value [2, 11] was “No other clinically significant changes”. The “deaths, other SAEs or AESIs” value [2, 11] was “No deaths, other SAEs, or AESIs were reported”, the “subjects who experienced a moderate or severe TEAE” value [2, 11] was “no subjects” and the “subjects who experienced ≥1 TEAE” value [2, 11] was 10 (77%) subjects (%). For the same compound, the “subjects who experienced ≥1 mild TEAE” value [2, 11] was 10 (77%) subjects (%), the tolerability [2, 11] was “generally well tolerated” and the tolerability ([2]; Part E, Cohorts E1 and E2, healthy subjects, 150 and 250 mg BID for 14 days) was “generally well tolerated”. For the same compound, the “subjects with moderate TEAEs” value ([2]; Part E, healthy subjects, 250 mg BID for 14 days) was 2 subjects, the “SAEs or AESIs” value [2, 12] was “No SAEs or AESIs were reported” and the “changes in vital sign, ECG, telemetry, safety laboratory (including liver and renal function testing), PFT, neurological examination or C-SSRS results” value [2, 12] was “No clinically significant changes”. For the same compound, the “subjects who experienced 1 TEAE” value [2, 12] was 25 (100.0%) subjects (%), the study-drug related discontinuations ([2]; Part E, healthy subjects, one at 250 mg BID, one at 400 mg) was “Two study-drug related discontinuations” and the “SAEs or AESIs” value [3, 13] was “No SAEs or AESIs were reported”. The tolerability [3, 13] was “generally well tolerated”, the “changes from baseline or trends in safety laboratory (including liver and renal function testing), ECG, neurological assessment, vital sign, PFT or C-SSRS results” value [3, 14] was “No other clinically significant individual changes from baseline or notable trends” and the “subjects who experienced ≥1 TEAE” value [3, 14] was 23 (88.5%) subjects (%). The “subjects with moderate TEAEs” value [3, 14] was 5 (19%) subjects (%), the “additional subjects with TEAEs of mild orthostatic hypotension / mild hypotension plus orthostatic hypotension” value ([3]; subjects with PD, 80 mg QD and 300 mg QD, resolved while on study drug) was “Two additional subjects” and the “subjects with severe TEAEs” value ([3]; subjects with PD, hypotension (130 mg QD), headache (300 mg QD), both considered not related to study drug) was “Two subjects”. The “most common TEAE” value ([4]; HVs and patients with PD) was “headache”, the “changes in pulmonary or renal function” value ([4]; HVs and patients with PD, up to 28 days) was “no clinically meaningful changes” and the tolerability ([4]; broad range of doses, HVs and patients with PD, up to 28 days) was “generally well tolerated”. The “changes in potential LRRK2 on-target renal or pulmonary function” value ([4]; healthy subjects and subjects with PD, up to 28 days of exposure) was “no apparent changes”, the safety and tolerability ([4]; over 200 subjects, doses up to 400 mg BID for 14 days in healthy volunteers or 225 mg for 28 days) was “safe and generally well tolerated” and the “target and pathway engagement” value ([5]; HVs and patients with PD, at doses generally well tolerated) was “robust target engagement and pathway engagement; also recorded: Robust target and pathway engagement”. The “reduction of pS935 in whole blood” value ([5]; Phase 1b patients with PD, trough (predose), steady state (Day 28), all dose levels studied) was “robust reduction”, the “reduction in pS935 compared with baseline” value ([5]; whole blood, trough (predose) at steady state (Day 10 Cohort B, Day 28 Cohort D, Day 14 Cohort E), highest dose) was no less than 80% and the “reduction in pS935 compared with baseline” value ([5]; whole blood, trough (predose) at steady state, lowest clinically relevant dose) was no less than 50%. For the same compound, the “pS935 reduced by at least” value ([5]; whole blood, about 70 to 800 mg/day, stated as an aspect of the method) was 41-97%, the “pRab10 reduced by at least” value ([6]; PBMC, about 70 to 800 mg/day, stated as an aspect of the method) was 44-97% and the “reduction of phosphorylation of Rab10 (pRab10) in PBMCs” value ([6]; Phase 1 HVs, trough (predose), steady state (Day 10 Cohort B, Day 28 Cohort D, Day 14 Cohort E), highest dose) was no less than 70%. For the same compound, the “pRab10 in PBMCs” value ([6]; Phase 1b patients with PD, trough (predose), steady state, all doses) was “reduced”, the “lysosomal lipid BMP 22:6 in urine” value [7] was “dose-dependent reduction” and the “CSF penetration based on the CSF/unbound plasma ratio” value [8] was “high CSF penetration”. The “subjects with severe TEAEs” value [9] was “two subjects”.
